For the assay, the system named is MIA PaCa-2 cells. The assay can be described thus: Alamar blue cell proliferation assay, pancreatic cancer cells. It is filed as cell-based, human. The note with it: carboplatin 0.2, 1, 2.5, 5 and 10 μg/mL, 72 h incubation. An excerpt:
All lines used were adherent human cell lines. • (i) Pancreatic cancer cell line: MIA PaCa-2 • Source: Available from ATCC (ATCC® CRL1420™) • Complete growth medium: Eagle's Minimum Essential Medium containing 5% fetal bovine serum and 5% cosmic calf serum • (ii) Human umbilical vein endothelial cells: HUVEC • Source: Available from ATCC (ATCC® PCS-100-010™) or Lonza (single or pooled donor) • Complete growth medium: EGM-2 BulletKit (Lonza) • (iii) Human foreskin fibroblasts: HFF-1 • Source: Available from ATCC (ATCC® SCRC-1041™) • Complete growth medium: Dulbecco's Modified Eagle's Medium containing 15% fetal bovine serum • (iv) Immortalized pancreas duct epithelial-like cells: hTERT-HPNE • Source: Available from ATCC (ATCC® CRL4023™) • Complete growth medium: Specialty Dulbecco's Modified Eagle's Medium composition, protocol available from ATCC • (v) Primary pancreatic stellate cells: Panc stellate • Source: Available from Applied Biological Materials (T4215) • Complete growth medium: Prigrow I containing 10% fetal bovine serum.
Each cell line was adherent in a growth flask, incubated at 37° C. and 5% CO2; de-attached cell from growth flask using Trypsin-EDTA solution (0.25% Trypsin, 0.53 mM EDTA); and counted by Trypan blue staining standard protocol. […]
A standard cell proliferation assay was used, the Alamar blue assay, to assess quantification of viable cells. […]

Structures are written as SMILES.

As to `N.N.O=C([O-])C1(C(=O)[O-])CCC1.[Pt+2]` [carboplatin], the “human pancreatic cancer cell proliferation (positive control)” value is “dose dependent cell growth inhibition”.

The record behind these values is patent US10610590B2, “Electrochemical plasma activated aqueous chemotherapeutics” (Symbios Technologies, Inc., priority 2016, dated 2020).
